Read-outs that look alike come from different tables or passages of the source.
Columns and labels:
[1] = target: T1, glucosylceramide synthase (Homo sapiens, UniProt Q16739); test: microsomal assay measuring conversion of ceramide to glucosylceramide by HPLC (GCS IC50); type: biochemical; conditions: concentration causing 50% inhibition of glucosylceramide synthase activity
T1 construct: Microsomes were isolated from A375 human melanoma cells; endogenous in cells; host or cells: A375 human melanoma cells (microsomal fraction, 100,000 g pellet)
T1 sequence (Q16739 1-394): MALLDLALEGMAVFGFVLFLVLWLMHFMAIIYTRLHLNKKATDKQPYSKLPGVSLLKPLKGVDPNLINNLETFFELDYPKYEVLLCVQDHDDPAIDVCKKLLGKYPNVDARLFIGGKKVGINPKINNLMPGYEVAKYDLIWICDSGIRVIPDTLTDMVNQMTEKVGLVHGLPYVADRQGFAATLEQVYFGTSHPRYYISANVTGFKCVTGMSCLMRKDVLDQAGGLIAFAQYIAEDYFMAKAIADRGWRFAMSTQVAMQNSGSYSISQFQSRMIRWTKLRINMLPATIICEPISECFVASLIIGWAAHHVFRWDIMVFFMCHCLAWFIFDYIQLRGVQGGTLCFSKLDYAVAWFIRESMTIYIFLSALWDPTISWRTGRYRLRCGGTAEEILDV
How it was run: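 IC50 is the compound concentration halving glucosylceramide synthase activity. Activity was measured in microsomes, with HPLC quantifying glucosylceramide formed from ceramide.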

[2] = test system: GM3 expression on the cell surface, B16 mouse melanoma cells; test: cell based phenotypic assay, cell surface GM3 by antibody mediated immunofluorescence, B16 (GM3 B16 IC50); conditions: 50% inhibition of GM3 expression on the cell surface
How it was run: (§1)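 Both lines undergo the phenotypic GM3 assay, and viability is recorded from that same cell-based run.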

[3] = test system: C32 human melanoma cells; test: cell viability in the C32 cell-based assay (Viability, C32 IC50); conditions: concentration causing 50% cell death, values greater than 10 represent a lack of cell death
How it was run: (§2)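 Cell death was scored within the cell-based GM3 experiment for each line. The viability value is the concentration producing 50% death, and numbers exceeding 10 signify no cytotoxicity.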

[4] = test system: GM3 expression on the cell surface, C32 human melanoma cells; test: cell based phenotypic assay, cell surface GM3 by antibody mediated immunofluorescence, C32 (GM3 C32 IC50); conditions: 50% inhibition of GM3 expression on the cell surface
How it was run: as §1

[5] = test system: B16 mouse melanoma cells; test: cell viability in the B16 cell-based assay (Viability, B16 IC50)
How it was run: as §2

[6] = B16 mouse melanoma cells, read-out: GM3 B16 IC50
[7] = C32 cells, read-out: Viability, C32 IC50
[8] = C32 human melanoma cells, read-out: GM3 C32 IC50
[9] = B16 cells, concentration causing 50% cell death, values greater than 10 represent a lack of cell death, read-out: Viability, B16 IC50
[10] = Mus musculus, B16 mouse melanoma cells, read-out: GM3 B16 IC50
[11] = Homo sapiens, C32, C32 cells, read-out: Viability, C32 IC50
[12] = Homo sapiens, C32 human melanoma cells, read-out: GM3 C32 IC50
[13] = Mus musculus, B16, B16 cells, concentration causing 50% cell death, values greater than 10 represent a lack of cell death, read-out: Viability, B16 IC50

Compound	IC50 [1]	IC50 [2, 6]	IC50 [3, 7]	IC50 [4, 8]	IC50 [5, 9]	IC50 [2, 10]	IC50 [3, 11]	IC50 [4, 12]	IC50 [5, 13]	IC50 ([2]; Mus musculus, read-out: GM3 B16 IC50, B16 mouse melanoma cells)	IC50 ([3]; Homo sapiens, C32, read-out: Viability, C32 IC50, C32 cells)	IC50 ([4]; Homo sapiens, read-out: GM3 C32 IC50, C32 human melanoma cells)	IC50 ([5]; Mus musculus, B16, read-out: Viability, B16 IC50)
N-(4-Methyl-1-azabicyclo[3.2.2]nonan-4-yl)-4-(3-(pyrimidin-5-yl)phenyl)piperazine-1-carboxamide [Example 27]	16500 nM	> 10000 nM	≥ 10000 nM	798 nM	≥ 10000 nM	–	–	–	–	–	–	–	–
CC1(NC(=O)C2(F)CCN(c3nccc(OCc4ccc(F)cc4)n3)CC2)CCN2CCC1CC2 (stereo not shown) [Example 124, 4-Fluoro-1-(4-((4-fluorobenzyl)oxy)pyrimidin-2-yl)-N-(4-methyl-1-azabicyclo[3.2.2]nonan-4-yl)piperidine-4-carboxamide]	0.553 nM	–	–	–	–	17.8 nM	100 nM	0.0849 nM	3420 nM	–	–	–	–
2-(3-(3-(Methylcarbamoyl)phenoxy)phenyl)propan-2-ylcarbamate [Example 295]	1020 nM	1750 nM	≥ 10000 nM	147 nM	≥ 10000 nM	–	–	–	–	–	–	–	–
COCCCOc1ccc(-c2nc(N3CC(C(=O)NC4(C)CCN5CCC4CC5)C3)ncc2F)cc1 (stereo not shown) [Example 111, 1-(5-Fluoro-4-(4-(3-methoxypropoxy)phenyl)pyrimidin-2-yl)-N-(4-methyl-1-azabicyclo[3.2.2]nonan-4-yl)azetidine-3-carboxamide]	2 nM	–	–	–	–	119 nM	1000 nM	0.19 nM	3650 nM	–	–	–	–
CNC(=O)c1cccc(Oc2cccc(C(C)(C)NC(=O)NC3(C)CCN4CCC3CC4)c2)c1 (stereo not shown) [Example 297, N-Methyl-3-(3-(2-(3-(4-methyl-1-aza-bicyclo[3.2.2]nonan-4-yl)ureido)propan-2-yl)phenoxy)benzamide]	10.2 nM	–	–	–	–	1370 nM	1000 nM	13.2 nM	≥ 10000 nM	–	–	–	–
CC(C)(NC(=O)OC1CN2CCC1CC2)c1ccc(-c2ccc(S(C)(=O)=O)cc2)cc1 (stereo not shown) [Example 235, Quinuclidin-3-yl (2-(4′-(methylsulfonyl)-[1,1′-biphenyl]-4-yl)propan-2-yl)carbamate]	111 nM	–	–	–	–	–	–	–	–	118 nM	≥ 10000 nM	19.9 nM	≥ 10000 nM
COCCOc1ccc(-c2nc(N3CCC(C(=O)NC4(C)CCN5CCC4CC5)CC3)ncc2F)cc1 (stereo not shown) [Example 56, 1-(5-Fluoro-4-(4-(2-methoxyethoxy)phenyl)pyrimidin-2-yl)-N-(4-methyl-1-azabicyclo[3.2.2]nonan-4-yl)piperidine-4-carboxamide]	4.63 nM	–	–	–	–	20.9 nM	7420 nM	0.173 nM	6760 nM	–	–	–	–
CC1(NC(=O)C2CCN(c3cncc(-c4ccc(F)cc4)n3)CC2)CCN2CCC1CC2 (single isomer, unassigned) [Example 48, 1-(6-(4-Fluorophenyl)pyrazin-2-yl)-N-(4-methyl-1-azabicyclo[3.2.2]nonan-4-yl)piperidine-4-carboxamide]	1.61 nM	47.7 nM	5.17 nM	0.096 nM	7760 nM	–	–	–	–	–	–	–	–
Quinuclidin-3-yl (2-(4′-(2-methoxyethoxy)-[1,1′-biphenyl]-3-yl)propan-2-yl)carbamate [Example 175]	2.5 nM	71.3 nM	9000 nM	1.87 nM	≥ 10000 nM	–	–	–	–	–	–	–	–
COCCOCc1ccc(-c2ccnc(N3CCC(C)(C(=O)NC4(C)CCN5CCC4CC5)CC3)n2)cc1 (stereo not shown) [Example 97, 1-(4-(4-((2-Methoxyethoxy)methyl)phenyl)pyrimidin-2-yl)-4-methyl-N-(4-methyl-1-azabicyclo[3.2.2]nonan-4-yl)piperidine-4-carboxamide]	13.4 nM	–	–	–	–	285 nM	1000 nM	1.36 nM	≥ 10000 nM	–	–	–	–
CC1(NC(=O)C2CCN(c3nccc(-c4ccc(F)cc4)n3)CC2)CCN2CCC1CC2 (stereo not shown) [Example 41, 1-(4-(4-Fluorophenyl)pyrimidin-2-yl)-N-(4-methyl-1-azabicyclo[3.2.2]nonan-4-yl)piperidine-4-carboxamide]	1.14 nM	–	–	–	–	9.7 nM	20 nM	0.124 nM	6440 nM	–	–	–	–

Reference: US12060349B2, “Glucosylceramide synthase inhibitors” (Genzyme Corporation, priority 2012, dated 2024)
